ChEMBL document CHEMBL5154875, “Discovery of Potent Orally Bioavailable WD Repeat Domain 5 (WDR5) Inhibitors Using a Pharmacophore-Based Optimization” (J Med Chem, 2022)
≈ marks a conversion by molar mass, not a printed value.

Columns and labels:
MV4-11 = experiment: Anti-proliferative activity against human MV4-11 cells assessed as inhibition of cell proliferation incubated for 5 days by Cell Titre Glo luminescent assay; assay type: functional; settings: Homo sapiens, MV4-11, 120 h, time 5 day
K562 = experiment: Anti-proliferative activity against human K562 cells assessed as inhibition of cell proliferation incubated for 5 days by Cell Titre Glo luminescent assay; assay type: functional; settings: Homo sapiens, K562, 120 h, time 5 day
[1] = target: WD repeat-containing protein 5 (Homo sapiens, UniProt P61964); experiment: Competitive binding affinity to N-terminal 6xHis-SUMO-tagged human WDR5 (22 to 334 residues) expressed in Escherichia coli BL21-Gold (DE3) cells assessed as inhibition constant using 10-mer-Thr-FAM peptide as substrate incubated for 1 hr by Lantha Screen based TR-FRET assay
MOLM-13 = experiment: Anti-proliferative activity against human MOLM-13 cells assessed as inhibition of cell proliferation incubated for 5 days by Cell Titre Glo luminescent assay; assay type: functional; settings: Homo sapiens, MOLM-13, 120 h, time 5 day
[2] = Clearance in CD-1 mouse at 3 mg/kg, iv measured 0.083 to 24 hrs post-treatment by LC-MS/MS analysis; assay type: ADME, organism-based; settings: in vivo, time 0.083-24 hrs
[3] = AUC (0 to infinity) in CD-1 mouse at 3 mg/kg, iv measured 0.083 to 24 hrs post-treatment by LC-MS/MS analysis; assay type: ADME, organism-based; parameters: time upper 24 hrs, time lower 0.083 hrs, dose 3 mg/kg, route iv; settings: in vivo; for AUC(0-inf): CD-1, mouse
[4] = Volume of distribution at steady state in CD-1 mouse at 3 mg/kg, iv measured 0.083 to 24 hrs post-treatment by LC-MS/MS analysis; assay type: ADME, organism-based; settings: in vivo, time 0.083-24 hrs; for Vd: CD-1, mouse, read-out: Vdss
[5] = Cmax in CD-1 mouse at 10 mg/kg, po measured 0.083 to 24 hrs post-treatment by LC-MS/MS analysis; assay type: ADME, organism-based; parameters: time lower 0.083 hrs, dose 10 mg/kg, time upper 24 hrs, route po; settings: in vivo
[6] = AUC (0 to infinity) in CD-1 mouse at 10 mg/kg, po measured 0.083 to 24 hrs post-treatment by LC-MS/MS analysis; assay type: ADME, organism-based; parameters: dose 10 mg/kg, time upper 24 hrs, time lower 0.083 hrs, route po; settings: in vivo; for AUC(0-inf): CD-1, mouse
[7] = Half life in CD-1 mouse at 10 mg/kg, po measured 0.083 to 24 hrs post-treatment by LC-MS/MS analysis; assay type: ADME, organism-based; settings: in vivo, time 0.083-24 hrs; for half-life: CD-1, mouse; for t1/2: mouse, po, 10 mg/kg
[8] = Oral bioavailability in CD-1 mouse at 10 mg/kg measured 0.083 to 24 hrs post-treatment by LC-MS/MS analysis; assay type: ADME, organism-based; settings: in vivo, time 0.083-24 hrs; for bioavailability: CD-1, mouse
[9] = Kinetic solubility of compound in PBS at pH 7.4 at 100 uM incubated for 1 hr by UV-visible spectroscopy analysis; assay type: physicochemical; settings: for solubility kinetic at 1 h, 100 µM: PBS, pH 7.4, read-out: Kinetic_solubility
[10] = Metabolic stability of compound in rat liver microsome assessed as half life at 1 uM measured upto 45 mins by LCMS analysis; assay type: ADME, microsomes; settings: microsomes, 0.75 h, 1 µM
[11] = Metabolic stability of compound in rat liver microsome assessed as intrinsic clearance at 1 uM measured upto 45 mins by LCMS analysis; assay type: ADME, microsomes; settings: microsomes, 0.75 h, 1 µM

| SMILES | GI50 (MV4-11) | GI50 (K562) | Ki [1] | GI50 (MOLM-13) | also measured |
| --- | --- | --- | --- | --- | --- |
| CCc1ccnc(CN2CCc3c(cc(Cn4ccnc4C)cc3-c3cn(C)nc3C(F)(F)F)C2=O)c1 | 16 nM | 4100 nM | < 0.02 nM | 25 nM | – |
| CCc1nccn1Cc1cc2c(c(-c3cn(C)nc3C(F)(F)F)c1)CCN(Cc1cc(OC)cc(OC)c1)C2=O | 94 nM | 7500 nM | – | 240 nM | – |
| COc1cc(CN2CCc3c(cc(Cn4ccnc4C4CC4)cc3-c3cn(C)nc3C(F)(F)F)C2=O)cc(OC)c1 | 240 nM | 8500 nM | 0.028 nM | 710 nM | – |
| CCn1cc(-c2cc(Cn3ccnc3C)cc3c2CCN([C@@H](c2cc(OC)ccn2)C2CC2)C3=O)c(C(F)(F)F)n1 | 15 nM | 2600 nM | – | 36 nM | clearance [2]: 41 mL/min/kg; AUC(0-inf) [3]: 1240 ng·h/mL; Vd [4]: 1.6 L/kg; Cmax ([5]; CD-1, mouse, read-out: Cmax): 652 ng/mL; AUC(0-inf) [6]: 508 ng·h/mL; half-life [7]: 1.4 h; bioavailability [8]: 12%; solubility kinetic at 1 h, 100 µM [9]: 65 µM (≈ 36.7 µg/mL) |
| CCn1cc(-c2cc(Cn3ccnc3C)cc3c2CCN([C@H](C)c2cc(OC)ccn2)C3=O)c(C(F)(F)F)n1 | 39 nM | 7800 nM | 0.029 nM | 110 nM | – |
| COc1cc(CN2CCc3c(cc(Cn4ccn(C)c4=N)cc3-c3cccnc3OC)C2=O)cc(OC)c1 | 560 nM | > 30000 nM | 0.055 nM | 1600 nM | – |
| COc1cc(CN2CCc3c(cc(Cn4ccn(C)c4=N)cc3-c3cn(C)nc3C(F)(F)F)C2=O)cc(OC)c1 | 39 nM | > 30000 nM | < 0.02 nM | 110 nM | – |
| CCn1cc(-c2cc(Cn3ccnc3)cc3c2CCN([C@H](C)c2cc(OC)ccn2)C3=O)c(C(F)(F)F)n1 | 39 nM | 12000 nM | 0.028 nM | 100 nM | – |
| Cc1nccn1Cc1cc2c(c(-c3cn(C)nc3C(F)(F)F)c1)CCN(Cc1ccccn1)C2=O | 1500 nM | > 30000 nM | 0.23 nM | 3100 nM | – |
| CCn1cc(-c2cc(Cn3ccnc3C)cc3c2CCN([C@H](c2cc(C)ccn2)C2CC2)C3=O)c(C(F)(F)F)n1 | 17 nM | 2500 nM | < 0.02 nM | 43 nM | AUC ([3]; mouse): 2075 ng·h/mL; Vdss ([4]; mouse, iv, 3 mg/kg): 1.1 L/kg; Cmax ([5]; mouse): 1083 ng/mL; AUC ([6]; mouse): 1000 ng·h/mL; t1/2 [7]: 1.2 h; F ([8]; mouse, po, 10 mg/kg): 15%; Kinetic_solubility ([9]; buffer, pH 7.4, 1 h, 100 µM): 66 µM |
| COc1cc(CN2CCc3c(cc(Cn4ccn(C)c4=N)cc3-c3ccncc3C)C2=O)cc(OC)c1 | 230 nM | > 30000 nM | 0.029 nM | 640 nM | – |
| COc1cc(CN2CCc3c(cc(Cn4cnnc4)cc3-c3cn(C)nc3C(F)(F)F)C2=O)cc(OC)c1 | 16000 nM | > 30000 nM | 6.5 nM | > 30000 nM | – |
| Cc1cccc(CN2CCc3c(cc(Cn4ccnc4C)cc3-c3cn(C)nc3C(F)(F)F)C2=O)n1 | 170 nM | 13000 nM | 0.039 nM | 330 nM | – |
| COc1cc(CN2CCc3c(cc(Cn4ccn(C)c4=N)cc3-c3cc(C)cnc3C)C2=O)cc(OC)c1 | 640 nM | > 30000 nM | 0.022 nM | 2400 nM | – |
| CCn1cc(-c2cc(Cn3ccnc3C)cc3c2CCN(Cc2cc(OC)ccn2)C3=O)c(C(F)(F)F)n1 | 34 nM | 13000 nM | < 0.02 nM | 59 nM | – |
| COc1cc(CN2CCc3c(cc(Cn4cccn4)cc3-c3cn(C)nc3C(F)(F)F)C2=O)cc(OC)c1 | 22000 nM | > 30000 nM | > 6.7 nM | 20000 nM | – |
| COc1cc(CN2CCc3c(cc(Cn4ccn(C)c4=N)cc3-c3c(C)nn(C)c3C)C2=O)cc(OC)c1 | 19000 nM | > 30000 nM | 0.21 nM | > 30000 nM | – |
| CCn1cc(-c2cc(Cn3ccnc3)cc3c2CCN([C@H](c2cc(OC)ccn2)C2CC2)C3=O)c(C(F)(F)F)n1 | 19 nM | 1500 nM | < 0.02 nM | 37 nM | t1/2 [7]: 1.2 h |
| COc1cc(CN2CCc3c(cc(Cn4ccnc4C(C)C)cc3-c3cn(C)nc3C(F)(F)F)C2=O)cc(OC)c1 | 4700 nM | 6000 nM | 3.4 nM | 7700 nM | – |

| SMILES | GI50 (MV4-11) | GI50 (K562) | Ki [1] | GI50 (MOLM-13) | also measured |
| --- | --- | --- | --- | --- | --- |
| COc1cc(CN2CCc3c(cc(Cn4ccn(C)c4=N)cc3-c3ccc(F)cc3O)C2=O)cc(OC)c1 | 88 nM | > 30000 nM | 0.035 nM | 220 nM | – |
| CCc1ccnc(CN2CCc3c(cc(Cn4ccnc4C)cc3-c3cn(CC)nc3C(F)(F)F)C2=O)c1 | 24 nM | 5600 nM | < 0.02 nM | 43 nM | – |
| CCn1cc(-c2cc(Cn3ccn(C)c3=N)cc3c2CCN(Cc2cc(OC)cc(OC)c2)C3=O)c(C(F)(F)F)n1 | 36 nM | > 30000 nM | < 0.02 nM | 110 nM | – |
| COc1ccnc(CN2CCc3c(cc(Cn4ccnc4C)cc3-c3cn(C)nc3C(F)(F)F)C2=O)c1 | 24 nM | 9500 nM | < 0.02 nM | 39 nM | t1/2 [10]: 3.2 min; CLH [11]: 220 µL/min/mg |
| COc1cc(CN2CCc3c(cc(Cn4ccn(C)c4=N)cc3-c3cn(C)nc3C)C2=O)cc(OC)c1 | 210 nM | > 30000 nM | 0.023 nM | 570 nM | – |
| COc1cc(CN2CCc3c(cc(Cn4ccnc4C(F)F)cc3-c3cn(C)nc3C(F)(F)F)C2=O)cc(OC)c1 | 12000 nM | > 30000 nM | > 6.7 nM | 20000 nM | – |
| Cc1cc(CN2CCc3c(cc(Cn4ccnc4C)cc3-c3cn(C)nc3C(F)(F)F)C2=O)ccn1 | 270 nM | 13000 nM | 0.064 nM | 550 nM | – |
| Cc1cccnc1CN1CCc2c(cc(Cn3ccnc3C)cc2-c2cn(C)nc2C(F)(F)F)C1=O | 3000 nM | 22000 nM | 0.59 nM | 4700 nM | – |
| COc1cc(CN2CCc3c(cc(Cn4ccnc4)cc3-c3cn(C)nc3C(F)(F)F)C2=O)cc(OC)c1 | 59 nM | 9100 nM | < 0.02 nM | 180 nM | – |
| COc1cc(CN2CCc3c(cc(Cn4ccn(C)c4=N)cc3-c3ccc(F)cc3OC)C2=O)cc(OC)c1 | 210 nM | 18000 nM | 0.033 nM | 420 nM | – |
| COc1cc(CN2CCc3c(cc(Cn4ccn(C)c4=N)cc3-c3cc(C)ncc3C)C2=O)cc(OC)c1 | 200 nM | > 30000 nM | < 0.02 nM | 560 nM | – |
| COc1cc(CN2CCc3c(cc(Cn4ccnc4C)cc3-c3cn(C)nc3C(F)(F)F)C2=O)cc(OC)c1 | 32 nM | 3700 nM | < 0.02 nM | 110 nM | – |
| COc1cc(CN2CCc3c(cc(Cn4ccn(C)c4=N)cc3-c3conc3C)C2=O)cc(OC)c1 | 850 nM | > 30000 nM | 0.046 nM | 2100 nM | – |
| COc1cc(CN2CCc3c(cc(Cn4ccn(C)c4=N)cc3-c3cc(C)nn3C)C2=O)cc(OC)c1 | 85 nM | > 30000 nM | 0.025 nM | 270 nM | – |
| Cc1ccnc(CN2CCc3c(cc(Cn4ccnc4C)cc3-c3cn(C)nc3C(F)(F)F)C2=O)c1 | 23 nM | 3600 nM | 0.02 nM | 33 nM | – |
| CCn1cc(-c2cc(Cn3ccnc3)cc3c2CCN([C@@H](c2cc(OC)ccn2)C2CC2)C3=O)c(C(F)(F)F)n1 | 13 nM | 3700 nM | – | 27 nM | clearance [2]: 26 mL/min/kg; AUC(0-inf) [3]: 1950 ng·h/mL; Vd [4]: 1.6 L/kg; Cmax ([5]; CD-1, mouse, read-out: Cmax): 2080 ng/mL; AUC(0-inf) [6]: 3980 ng·h/mL; half-life [7]: 1.3 h; bioavailability [8]: 61%; solubility kinetic at 1 h, 100 µM [9]: 60 µM (≈ 33 µg/mL) |
| COc1cc(CN2CCc3c(cc(Cn4ccn(C)c4=N)cc3-c3cccnc3C)C2=O)cc(OC)c1 | 1200 nM | > 30000 nM | 0.036 nM | 3900 nM | – |
| COc1cc(CN2CCc3c(cc(Cn4cccc4)cc3-c3cn(C)nc3C(F)(F)F)C2=O)cc(OC)c1 | 15000 nM | > 30000 nM | > 6.7 nM | 15000 nM | – |
